# Source: patent US20070259849A1, “Azine-Carboxamides as Anti-Cancer Agents” (ASTRAZENECA AB, priority 2004, published 2007)
# Molecular target: T1, human recombinant, purified wild type His-B-Raf protein kinase (Homo sapiens, UniProt P15056)
# T1 construct: His
# Experiment: B-Raf In Vitro ELISA Assay
# Assay type: biochemical
# Conditions: phosphorylation of MEK1 (0.15 μM) by 2.5 nM B-Raf, 10 μM ATP, 1 hour preincubation at 25° C.
# Procedure: B-Raf In Vitro ELISA Assay
# Activity of human recombinant, purified wild type His-B-Raf protein kinase was determined in vitro using an enzyme-linked immunosorbent assay (ELISA) assay format, which measures phosphorylation of the B-Raf substrate, human recombinant, purified His-derived (detagged) MEK1. The reaction utilized 2.5 nM B-Raf, 0.15 μM MEK1 and 10 μM adenosine triphosphate (ATP) in 40 mM N-(2-hydroxyethyl)piperazine-N′-(2-ethanesulfonic acid hemisodium salt (HEPES), 5 mM 1,4-dithio-DL-threitol (DTT), 10 mM MgCl2, 1 mM ethylenediaminetetraacetic acid (EDTA) and 0.2 M NaCl (1×HEPES buffer), with or without compound at various concentrations, in a total reaction volume of 25 μl in 384 well plates. B-Raf and compound were preincubated in 1×HEPES buffer for 1 hour at 25° C. Reactions were initiated with addition of MEK1 and ATP in 1×HEPES buffer and incubated at 25° C. for 50 minutes and reactions stopped by addition of 10 μl 175 mM EDTA (final concentration 50 mM) in 1× HEPES buffer. 5 μl of the assay mix was then diluted 1:20 into 50 mM EDTA in 1×HEPES buffer, transferred to 384 well black high protein binding plates and incubated overnight at 4° C. Plates were washed in tris buffered saline containing 0.1% Tween20 (TBST), blocked with 50 μl Superblock (Pierce) for 1 hour at 25° C., washed in TBST, incubated with 50 μl rabbit polyclonal anti-phospho-MEK antibody (Cell Signaling) diluted 1:1000 in TBS for 2 hours at 25° C., washed with TBST, incubated with 50 μl goat anti-rabbit horseradish peroxidase-linked antibody (Cell Signaling) diluted 1:2000 in TBS for 1 hour at 25° C. and washed with TBST. 50 μl of fluorogenic peroxidase substrate (Quantablu—Pierce) was added and following incubation for 45-60 minutes, 50 μl QuantabluSTOP (Pierce) was added. Blue fluorescent product was detected at excitation 325 and emission 420 using a TECAN Ultra plate reader. Data was graphed and IC50s calculated using Excel Fit (Microsoft).
# T1 sequence (P15056 whole entry): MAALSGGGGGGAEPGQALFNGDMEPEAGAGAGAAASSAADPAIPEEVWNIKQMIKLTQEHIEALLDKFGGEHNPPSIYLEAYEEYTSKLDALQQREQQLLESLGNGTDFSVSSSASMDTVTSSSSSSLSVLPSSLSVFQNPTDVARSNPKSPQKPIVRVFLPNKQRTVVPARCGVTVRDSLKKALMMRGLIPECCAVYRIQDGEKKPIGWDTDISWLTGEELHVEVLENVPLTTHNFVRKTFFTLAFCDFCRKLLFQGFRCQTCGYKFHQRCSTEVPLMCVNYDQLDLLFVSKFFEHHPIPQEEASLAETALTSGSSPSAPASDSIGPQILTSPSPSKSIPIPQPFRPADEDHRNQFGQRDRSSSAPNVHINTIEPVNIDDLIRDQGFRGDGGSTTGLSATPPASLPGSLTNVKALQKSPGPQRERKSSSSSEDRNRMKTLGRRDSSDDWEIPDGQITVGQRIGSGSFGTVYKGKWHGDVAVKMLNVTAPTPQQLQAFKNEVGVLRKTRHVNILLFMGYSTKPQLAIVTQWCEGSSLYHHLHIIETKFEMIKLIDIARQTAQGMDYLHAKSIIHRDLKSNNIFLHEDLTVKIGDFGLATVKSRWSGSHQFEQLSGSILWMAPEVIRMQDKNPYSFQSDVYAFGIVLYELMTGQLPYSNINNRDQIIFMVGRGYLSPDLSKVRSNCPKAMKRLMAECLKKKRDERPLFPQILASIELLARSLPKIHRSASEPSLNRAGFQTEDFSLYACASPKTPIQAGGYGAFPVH
row,SMILES,IC50 [nM]
1,"Cc1cc(C(=O)Nc2cc(NC(=O)c3cccc(C(C)(C)C#N)c3)ccc2C)nc(N2CCOCC2)n1 [Example 7, N^1-[3-(1-Cyano-1-methylethyl)benzoyl]-N^3-[2-(morpholino)-4-methylpyrimidin-6-ylcarbonyl]-4-methylbenzene-1,3-diamine]",600
2,"Cc1cc(C(=O)Nc2cc(NC(=O)c3cccc(C(F)(F)F)c3)ccc2C)nc(N2CCN(C)CC2)n1 [Example 49, N^1-(3-Trifluoromethylbenzoyl)-N^3-[2-(4-methylpiperazin-1-yl)-4-methylpyrimidin-6-ylcarbonyl]-4-methylbenzene-1,3-diamine]",800
3,"Cc1cc(C(=O)Nc2cc(NC(=O)c3cccc(C(C)(C)C#N)c3)ccc2C)nc(N2CCCCC2)n1 [Example 1, N^1-[3-(1-Cyano-1-methylethyl)benzoyl]-N^3-[2-(piperidin-1-yl)-4-methylpyrimidin-6-ylcarbonyl]-4-methylbenzene-1,3-diamine]",5700
